Test results published in PMC11949107, “Polyunsaturated fatty acids and their endocannabinoid-related metabolites activity at human TRPV1 and TRPA1 ion channels expressed in HEK-293 cells” (PeerJ, 2025).
Values joined by “and” are separate entries in the source; they are usually repeats but may differ in a detail not shown here. Identical values can stand only once.

Legend:
human TRPA1 = molecular target: T1, human TRPA1 (Homo sapiens, UniProt O75762); test: Calcium 5 dye [Ca]i assay in HEK-293 Flp-In T-REx cells expressing TRPA1 (agonist response); type: cell-based; details: for Elevation of [Ca]i in HEK-293 TRPA1 cells compared with HEK-293 EV cells: 10 µM (cinnamaldehyde 300 µM); for Change of Ca5 fluorescence, Mean ± SEM, TRPA1 (10 µM): HEK-293 TRPA1 cells, percentage of predrug baseline; for TRPA1 activation at the highest concentration tested / TRPA1 response compared with the highest concentration of cinnamaldehyde (300 µM) / TRPA1 response, Mean± SEM (N): 30 µM; for TRPA1 response, Mean± SEM (N): one-way ANOVA comparison with cinnamaldehyde 300 µM; for Emax at 30 µM: HEK293, read-out: Emax ± SEM % TRPA1 (30 µM); for [Ca]i response (change in fluorescence), individual replicates: sheet Figure 3(E); for Change in Ca5 fluorescence, individual experiments (CRC raw data): TRPA1 cells
T1 construct: Life Technologies (cells); host or cells: Flp-In T-REx HEK-293
T1 sequence (O75762 whole entry): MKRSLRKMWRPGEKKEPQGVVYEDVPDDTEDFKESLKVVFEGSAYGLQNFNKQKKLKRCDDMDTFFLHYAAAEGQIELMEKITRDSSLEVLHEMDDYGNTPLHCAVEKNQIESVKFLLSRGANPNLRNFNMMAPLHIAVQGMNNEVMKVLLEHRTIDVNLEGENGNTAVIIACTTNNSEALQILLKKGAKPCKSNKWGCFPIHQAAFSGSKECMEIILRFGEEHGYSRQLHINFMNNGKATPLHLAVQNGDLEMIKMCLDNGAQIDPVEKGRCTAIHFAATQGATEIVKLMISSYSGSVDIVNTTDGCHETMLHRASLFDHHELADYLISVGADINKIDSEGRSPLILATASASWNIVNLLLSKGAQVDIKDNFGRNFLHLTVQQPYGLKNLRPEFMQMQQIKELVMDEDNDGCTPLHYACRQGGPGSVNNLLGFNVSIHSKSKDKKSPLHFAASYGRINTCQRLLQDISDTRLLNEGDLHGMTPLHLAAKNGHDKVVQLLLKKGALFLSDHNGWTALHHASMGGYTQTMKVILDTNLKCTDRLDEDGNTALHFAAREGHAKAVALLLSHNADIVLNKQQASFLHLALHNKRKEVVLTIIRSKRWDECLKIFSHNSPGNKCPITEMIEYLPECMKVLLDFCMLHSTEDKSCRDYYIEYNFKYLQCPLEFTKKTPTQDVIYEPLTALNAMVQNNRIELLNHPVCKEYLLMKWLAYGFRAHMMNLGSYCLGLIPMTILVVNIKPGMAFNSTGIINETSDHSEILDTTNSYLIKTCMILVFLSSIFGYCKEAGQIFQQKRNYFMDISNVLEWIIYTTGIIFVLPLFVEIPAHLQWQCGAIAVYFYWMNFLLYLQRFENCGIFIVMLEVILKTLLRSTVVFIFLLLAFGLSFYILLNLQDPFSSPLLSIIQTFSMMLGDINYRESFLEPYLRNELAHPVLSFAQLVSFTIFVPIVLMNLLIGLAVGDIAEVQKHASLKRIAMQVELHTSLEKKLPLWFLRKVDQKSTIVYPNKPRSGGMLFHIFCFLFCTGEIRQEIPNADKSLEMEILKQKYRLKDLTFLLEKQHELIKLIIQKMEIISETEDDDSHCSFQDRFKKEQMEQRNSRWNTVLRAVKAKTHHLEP
Description: (§1) The cells were incubated in a 5% CO2 humidified atmosphere at 37 °C. Upon reaching approximately 90% confluence in 75 cm^2 flasks, they were trypsinized and transferred to poly-D-lysine coated 96-well plates (Corning, Castle Hill, NSW, Australia) in L-15 medium supplemented with 1% FBS, 100 U penicillin and 100 µg streptomycin ml^−1 (1% P/S), and 15 mM glucose (80 µL volume per well). After an overnight incubation (maximum of 16 h) in humidified room air at 37 °C, TRPV1 and TRPA1 receptor expression was induced 4 h before experimentation by adding to each well 10 µL tetracycline solution to a final concentration of 1 µg ml^−1.
(§2) Intracellular calcium [Ca]i levels were assessed using the calcium 5 kit from Molecular Devices (# R8186, Sunnyvale, CA, USA) on a FlexStation 3 Microplate Reader (Molecular Devices, Sunnyvale, CA, USA). […] Probenecid (cat # 50027; Biotium) which helps to prevent expulsion of calcium indicator from the cells was added to a final concentration of 1.25 mM. 90 µL of the dye were loaded into each well of the plate and incubated for 1 h before reading in the FlexStation 3 at 37 °C. Fluorescence was recorded every 2 s (λ excitation = 485 nm, λ emission = 525 nm) for 5 min. After 1 min of baseline recording, 20 µL of the drug, dissolved in HBSS with 1% dimethyl sulfoxide (DMSO) (cat # D2650; Sigma-Aldrich, Melbourne, Australia) was added (final DMSO concentration was 0.1% in well).
(§3) The response to agonists was expressed as a percentage change from the average baseline measurement taken for 60s before adding drug. Changes in fluorescence resulting from the addition of solvent were subtracted before normalization to baseline. Concentration–response curves (CRC), Emax and EC50 values were determined using a three-parameter logistic equation (GraphPad Prism, San Diego, CA, USA). […] Potencies were expressed as pEC50, which is the negative log of EC50 in moles per litre (Molar). Where appropriate, unpaired Student’s t-test were used to compare the responses of individual compounds in different conditions, while a one-way ANOVA followed by Dunnett’s multiple comparisons test was used to assess potential differences in responses elicited by a range of compounds. P < 0.05 was considered statistically significant.

HEK-293 EV cells = test: Calcium 5 dye [Ca]i assay in HEK-293 empty vector (EV) cells; type: cell-based, human; details: 10 µM
Description: as §1
Intracellular calcium [Ca]i levels were assessed using the calcium 5 kit from Molecular Devices (# R8186, Sunnyvale, CA, USA) on a FlexStation 3 Microplate Reader (Molecular Devices, Sunnyvale, CA, USA). […] 90 µL of the dye were loaded into each well of the plate and incubated for 1 h before reading in the FlexStation 3 at 37 °C. […] After 1 min of baseline recording, 20 µL of the drug, dissolved in HBSS with 1% dimethyl sulfoxide (DMSO) (cat # D2650; Sigma-Aldrich, Melbourne, Australia) was added (final DMSO concentration was 0.1% in well).
as §3

human TRPV1 = molecular target: T2, human TRPV1 (Homo sapiens, UniProt Q8NER1); test: Calcium 5 dye [Ca]i assay in HEK-293 Flp-In T-REx cells expressing TRPV1 (agonist response); type: cell-based; details: for Elevation of [Ca]i in HEK-293 TRPV1 cells compared with HEK-293 EV cells / Change of Ca5 fluorescence, Mean ± SEM, TRPV1 (10 µM): 10 µM; for Change of Ca5 fluorescence, Mean ± SEM, TRPV1 (10 µM): HEK-293 TRPV1 cells, percentage of predrug baseline; for TRPV1 response, Mean± SEM (N): 30 µM, one-way ANOVA comparison with capsaicin 10 µM; for Emax at 30 µM: HEK293, read-out: Emax ± SEM % TRPV1 (30 µM); for Change in Ca5 fluorescence, individual experiments (CRC raw data): TRPV1 cells
T2 construct: Life Technologies (cells); host or cells: Flp-In T-REx HEK-293
T2 sequence (Q8NER1 whole entry): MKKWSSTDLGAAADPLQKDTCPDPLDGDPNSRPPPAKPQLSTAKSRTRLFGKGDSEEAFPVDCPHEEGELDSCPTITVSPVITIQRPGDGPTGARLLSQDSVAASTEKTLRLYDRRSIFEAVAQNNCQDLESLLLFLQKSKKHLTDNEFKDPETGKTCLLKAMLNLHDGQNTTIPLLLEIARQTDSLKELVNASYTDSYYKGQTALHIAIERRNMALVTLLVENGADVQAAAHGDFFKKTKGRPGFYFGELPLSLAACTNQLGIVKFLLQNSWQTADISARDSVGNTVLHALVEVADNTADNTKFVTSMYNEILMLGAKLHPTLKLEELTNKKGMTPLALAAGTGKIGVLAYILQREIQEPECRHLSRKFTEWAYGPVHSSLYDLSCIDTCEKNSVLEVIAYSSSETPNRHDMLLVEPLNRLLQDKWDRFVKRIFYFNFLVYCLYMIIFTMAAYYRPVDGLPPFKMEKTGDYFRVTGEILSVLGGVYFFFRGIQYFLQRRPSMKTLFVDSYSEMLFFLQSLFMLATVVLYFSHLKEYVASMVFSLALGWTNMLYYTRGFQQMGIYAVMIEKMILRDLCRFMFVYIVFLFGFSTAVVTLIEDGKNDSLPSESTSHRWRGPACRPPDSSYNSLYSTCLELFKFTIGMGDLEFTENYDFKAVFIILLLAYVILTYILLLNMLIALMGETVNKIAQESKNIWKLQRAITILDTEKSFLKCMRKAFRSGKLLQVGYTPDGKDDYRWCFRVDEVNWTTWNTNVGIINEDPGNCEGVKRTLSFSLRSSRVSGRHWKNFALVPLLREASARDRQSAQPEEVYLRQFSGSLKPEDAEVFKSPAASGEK
Description: as §1, §2, §3

[1] = HEK-293 EV cells, percentage of predrug baseline

Compound	Elevation of [Ca]i in HEK-293 TRPA1 cells compared with HEK-293 EV cells (human TRPA1)	Change of Ca5 fluorescence, Mean ± SEM, TRPA1 (10 µM) (human TRPA1) [%]	TRPA1 activation at the highest concentration tested (human TRPA1)	TRPA1 response compared with the highest concentration of cinnamaldehyde (300 µM) (human TRPA1)	TRPA1 response, Mean± SEM (N) (human TRPA1)	Emax at 30 µM (human TRPA1) [%]	[Ca]i response (change in fluorescence), individual replicates (human TRPA1; concentration -4.52288 (log))	[Ca]i response (change in fluorescence), individual replicates (human TRPA1; concentration -5 (log))	[Ca]i response (change in fluorescence), individual replicates (human TRPA1; concentration -5.52288 (log))	[Ca]i response (change in fluorescence), individual replicates (human TRPA1; concentration -6 (log))	[Ca]i response (change in fluorescence), individual replicates (human TRPA1; concentration -6.52288 (log))	Elevation of [Ca]i in HEK-293 TRPV1 cells compared with HEK-293 EV cells (human TRPV1)	Change of Ca5 fluorescence, Mean ± SEM, TRPV1 (10 µM) (human TRPV1) [%]	Emax at 30 µM (human TRPV1) [%]	Change in Ca5 fluorescence, individual experiments (CRC raw data) (human TRPV1; log concentration -4.52288 (M))	Change in Ca5 fluorescence, individual experiments (CRC raw data) (human TRPV1; log concentration -5 (M))	Change in Ca5 fluorescence, individual experiments (CRC raw data) (human TRPV1; log concentration -5.52288 (M))	Change in Ca5 fluorescence, individual experiments (CRC raw data) (human TRPV1; log concentration -6 (M))	Change in Ca5 fluorescence, individual experiments (CRC raw data) (human TRPV1; log concentration -6.52288 (M))	Change in Ca5 fluorescence, individual experiments (CRC raw data) (human TRPV1; log concentration -7 (M))	other results
CCCCC/C=C\C/C=C\C/C=C\C/C=C\CCCC(=O)OC(CO)CO [2-AG, 2-arachidonoylglycerol]	did not produce a change	6 ± 1	activated TRPA1	significantly smaller	109 ± 60	109 ± 68	14.9622 and 7.179 and 134.366 and 9.127 and 431.447 and 54.77	4.64 and 4.022 and 10.3661 and 3.3919 and 6.211 and 4.731	6.153 and 3.314 and 8.987 and 3.008 and 4.615 and 3.811	6.477 and 4.178 and 4.8275 and 2.1815 and 3.7711 and 3.334	5.571 and 5.908 and 5.712 and 6.071 and 7.256 and 4.936	did not produce a notable change	30 ± 12	78 ± 26	27.3329 and 112.734 and 162.217 and 44.4524 and 123.109 and 0.2559	7.357 and 86.123 and 26.0517 and 22.0298 and 37.7022 and 3.715	1.982 and 59.8686 and 3.625 and 7.304 and 11.7183 and 5.763	3.178 and 11.4308 and 1.524 and 2.296 and 1.51 and 5.0359	2.799 and 5.91 and 1.131 and 13.0737 and 2.188 and 2.217	3.868 and 2.533 and 1.007 and 9.752 and 4.95 and 2.563	[Ca]i response (change in fluorescence), individual replicates (human TRPA1; concentration -7 (log)): 4.596 and 9.253 and 10.2641 and 5.393 and 9.276 and 4.379; Change of Ca5 fluorescence, Mean ± SEM, EV (10 µM) (HEK-293 EV cells; [1]): 4 ± 2%; TRPV1 response, Mean± SEM (N) (human TRPV1): 78± 56
CCCCC/C=C\C/C=C\CCCCCCCC(=O)OC(CO)CO [2-LG, 2-linoleoyl glycerol]		6 ± 2	no effect	significantly smaller	10± 60	10 ± 4						significantly greater	41 ± 13	75 ± 13	94.4158 and 105.55 and 25.614 and 76.6153 and 45.9507 and 101.137	77.397 and 64.9743 and 11.4263 and 68.0539 and 10.4174 and 14.0616	11.4427 and 8.3913 and 3.912 and 22.8641 and 8.0659 and 6.3713	1.494 and 8.29 and 4.971 and 3.518 and 4.176 and 6.083	-0.2355 and 4.786 and 26.5089 and 15.6203 and 3.581 and 2.28	0.8392 and 7.338 and 6.807 and 12.2096 and 4.264 and 3.998	Change in Ca5 fluorescence, individual experiments (CRC raw data) (human TRPA1; log concentration -4.52288 (M)): 12.5375 and 5.756 and 5.697 and 4.08 and 3.702 and 27.8122; Change in Ca5 fluorescence, individual experiments (CRC raw data) (human TRPA1; log concentration -5 (M)): 11.4202 and 3.2095 and 1.996 and 7.055 and 3.7574 and 11.3273; Change in Ca5 fluorescence, individual experiments (CRC raw data) (human TRPA1; log concentration -5.52288 (M)): 11.369 and 3.556 and 1.657 and 5.485; Change in Ca5 fluorescence, individual experiments (CRC raw data) (human TRPA1; log concentration -6 (M)): 12.4294 and 3.284 and 5.41 and 5.662 and 4.232 and 5.177; Change in Ca5 fluorescence, individual experiments (CRC raw data) (human TRPA1; log concentration -6.52288 (M)): 12.1064 and 3.832 and 1.455 and 7.527; Change in Ca5 fluorescence, individual experiments (CRC raw data) (human TRPA1; log concentration -7 (M)): 15.3703 and 7.007 and 2.201 and 137.719; Change of Ca5 fluorescence, Mean ± SEM, EV (10 µM) (HEK-293 EV cells): 4 ± 1%; TRPV1 response, Mean± SEM (N) (human TRPV1): 75± 56
CCCCC/C=C\C/C=C\C/C=C\C/C=C\CCCC(=O)NCCO [AEA, anandamide]	did not produce a change	78 ± 40	activated TRPA1	significantly smaller	206 ± 60	206 ± 60	380.839 and 400.035 and 86.0795 and 138.88 and 106.55 and 121.01	270.188 and 95.8276 and 43.3617 and 6.8753 and 19.4528 and 34.7169	11.1594 and 5.44 and 3.581 and 5.875	11.3796 and 3.6077 and 1.689 and 3.893 and 4.817 and 2.419	9.429 and 4.648 and 1.238 and 3.414	significantly greater	188 ± 36	304 ± 55	110.333 and 353.13 and 181.656 and 93.5107 and 312.513 and 324.288	107.669 and 250.336 and 142.845 and 78.9426 and 274.449 and 272.34	104.24 and 119.191 and 18.6933 and 67.9069 and 43.3725 and 39.8495	85.0507 and 18.1779 and 2.315 and 21.1299 and 4.82 and -0.1525	25.9314 and 10.5855 and 2.141 and 2.529 and 1.6051 and -0.1939	9.794 and 11.1798 and 5.889 and 1.561 and 3.7 and 2.135	[Ca]i response (change in fluorescence), individual replicates (human TRPA1; concentration -7 (log)): 11.2147 and 3.27 and 3.337 and 2.558; Change of Ca5 fluorescence, Mean ± SEM, EV (10 µM) (HEK-293 EV cells; [1]): 10 ± 2%; EC50 (human TRPV1): 7.94 µM; Maximal TRPV1 response compared with the highest concentration of capsaicin (human TRPV1; 30 µM vs capsaicin 10 µM): did not differ
